Results taken from paper PMC4986100, “Design, Synthesis and Biological Evaluation of4-(Imidazolylmethyl)-2-(4-methylsulfonyl phenyl)-Quinoline Derivatives as Selective COX-2 Inhibitors and In-vitro Anti-breast Cancer Agents” (Iranian Journal of Pharmaceutical Research : IJPR, 2016).

How the values were obtained:
[1] = biological target: T1, COX-2 (Ovis aries, UniProt P79208); assay: biochemical; conditions: for Selectivity Index (COX-1 IC50/COX-2 IC50): in-vitro COX-2 selectivity index; for IC50: ovine COX-1/COX-2 assay kit, means of two determinations
T1 construct: purchased Cayman Chemical
T1 sequence (P79208 17-603): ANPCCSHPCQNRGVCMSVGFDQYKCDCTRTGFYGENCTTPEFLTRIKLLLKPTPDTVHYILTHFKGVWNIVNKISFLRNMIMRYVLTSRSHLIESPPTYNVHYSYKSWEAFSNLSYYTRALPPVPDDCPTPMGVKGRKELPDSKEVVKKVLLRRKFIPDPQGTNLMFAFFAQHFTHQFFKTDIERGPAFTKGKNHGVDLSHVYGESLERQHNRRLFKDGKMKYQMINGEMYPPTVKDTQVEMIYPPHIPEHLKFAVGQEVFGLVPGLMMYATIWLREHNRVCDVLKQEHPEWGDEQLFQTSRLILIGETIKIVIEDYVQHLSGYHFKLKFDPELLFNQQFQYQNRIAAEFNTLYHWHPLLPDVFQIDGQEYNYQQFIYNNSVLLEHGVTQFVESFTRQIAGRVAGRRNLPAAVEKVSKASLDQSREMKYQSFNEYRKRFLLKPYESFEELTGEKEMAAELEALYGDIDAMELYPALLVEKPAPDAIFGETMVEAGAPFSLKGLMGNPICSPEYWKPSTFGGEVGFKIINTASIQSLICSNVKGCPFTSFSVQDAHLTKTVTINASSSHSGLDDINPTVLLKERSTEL
Method: (§1) In-vitro cyclooxygenase (COX) inhibition assays
(§2) The assay was performed using an enzyme chemiluminescentkit (Cayman Chemical, MI, USA) according to our previously reportedmethod([17])The Cayman chemical chemiluminescent COX
(§3) (ovine) inhibitor screening assay utilizes the heme-catalyzedhydroperoxidase activity of ovine cyclooxygenases to generateluminescence in the presence of a cyclic naphthalene hydrazideand the substrate arachidonic acid. Arachidonate-induced luminescencewas shown to be an index of real-time catalytic activity anddemonstrated the turnover inactivation of the enzyme. Inhibition

[2] = biological target: T2, COX-1 (Ovis aries, UniProt P05979); assay: biochemical; conditions: ovine COX-1/COX-2 assay kit; means of two determinations
T2 construct: purchased Cayman Chemical
T2 sequence (P05979 25-600): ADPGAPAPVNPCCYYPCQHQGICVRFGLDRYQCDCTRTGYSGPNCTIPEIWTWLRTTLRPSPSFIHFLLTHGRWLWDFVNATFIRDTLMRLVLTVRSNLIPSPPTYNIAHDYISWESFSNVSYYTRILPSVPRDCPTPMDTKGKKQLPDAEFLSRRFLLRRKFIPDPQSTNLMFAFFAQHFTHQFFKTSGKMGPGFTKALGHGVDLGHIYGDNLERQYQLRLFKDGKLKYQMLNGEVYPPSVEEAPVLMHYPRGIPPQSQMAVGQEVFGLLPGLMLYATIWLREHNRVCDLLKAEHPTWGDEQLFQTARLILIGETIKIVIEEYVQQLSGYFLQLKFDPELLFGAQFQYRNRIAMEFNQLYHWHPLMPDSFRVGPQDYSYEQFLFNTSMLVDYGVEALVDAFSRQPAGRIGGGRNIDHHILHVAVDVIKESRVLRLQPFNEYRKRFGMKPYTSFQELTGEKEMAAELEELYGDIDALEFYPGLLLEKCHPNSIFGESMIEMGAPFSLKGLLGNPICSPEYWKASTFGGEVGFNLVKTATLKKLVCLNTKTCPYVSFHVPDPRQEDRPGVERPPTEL
Method: as §1, §2, §3

[3] = system: T47D cells; assay: MTT cytotoxicity assay; format: cell-based, human; conditions: for Survival (%) of T47D cells: MTT; for IC50: MTT assay, calculated after two days exposure
Method: (§4) The human breast cancer T47D and MCF-7 cell lines were obtained from Pasteur Institute Cell Bank of IRAN (Tehran, IRAN). Cells were maintained in RPMI-1640(Gibco, UK) culture medium supplemented with 10% fetal bovine serum (Gibco, UK) and 100 U Ml^-1 of penicillin and […] of streptomycin (Gibco, UK) at 37 C in 5% CO2 incubator. All reagent and chemicals used in this experiment were of cell culture or molecular biology grade, purchased from different international sources.
(§5) The MTT (3-[4, 5-dimethylthiazol-2-yl]-2,5-diphenyl tetrazolium bromide) based assay was performed by seeding 5000 cells (T47D and MCF-7) per 180 µL RPMI complete culture medium in each well of 96-well culture plates. The day after seeding, culture medium was changed with medium containing standard anti-tumor drug Doxorubicin as well as different concentrations of newly synthesized compounds and RPMI control (no drug). Cells were then incubated at 37 °C in 5% Co2 incubator for 48h and 72h. Then 25 µL of MTT solution (4mg Ml^-1) were added to each well and further incubated at 37 °C for 3h. At the end of incubation, formazan crystals were dissolved in 100 µL of DMSO and plates were read in a plate reader (TECAN, Austria) at 540 nm. This experiment was performed in triplicate determination each time ([18],[19]).

[4] = system: MCF-7 cells; assay: MTT cytotoxicity assay; format: cell-based, human; conditions: for Survival (%) of MCF-7 cells: MTT; for IC50: Homo sapiens, MCF7, 48 h, MTT assay, calculated after two days exposure
Method: as §4, §5

Row | Compound | Selectivity Index (COX-1 IC50/COX-2 IC50) [1] | IC50 [1] [µM] | IC50 [2] [µM] | melting point [°C] | Survival (%) of T47D cells ([3]; 25 µM compound, 48 h exposure) [%] | Survival (%) of T47D cells ([3]; 25 µM compound, 72 h exposure) [%] | IC50 ([3]; Homo sapiens, T47D, 48 h) [µM] | IC50 [3] [µM] | Survival (%) of MCF-7 cells ([4]; 10 µM compound, 48 h exposure) [%] | Survival (%) of MCF-7 cells ([4]; 10 µM compound, 72 h exposure) [%] | IC50 [4] [µM] | Survival (%) of T47D cells ([3]; doxorubicin at 100 nM, 48 h) [%] | Survival (%) of T47D cells ([3]; doxorubicin at 100 nM, 72 h) [%] | Survival (%) of MCF-7 cells ([4]; doxorubicin at 250 nM (column head says 10 µM), 48 h) [%] | Survival (%) of MCF-7 cells ([4]; doxorubicin at 250 nM (column head says 10 µM), 72 h) [%]
1 | CS(=O)(=O)c1ccc(-c2cc(Cn3ccnc3)c3cccc(-c4ccccc4)c3n2)cc1 [Compound 9a, 4-((1H-Imidazol-1-yl)methyl)-2-(4-methylsulfonylphenyl)-8-phenyl-quinoline] | 423.9 | 0.071 | 30.1 | 196 to 198 | 33.8 | 25.4 | ≤ 25 | < 25 | 38.3 | 26.7 | < 10 |  |  |  | 
2 | Cc1ccc2c(Cn3ccnc3)cc(-c3ccc(S(C)(=O)=O)cc3)nc2c1C [Compound 9b, 4-((1H-Imidazol-1-yl)methyl)-2-(4-methylsulfonylphenyl)-7,8-dimethyl-quinoline] | 288.9 | 0.09 | 26 | 218 to 219 | 66.2 | 69.5 | 50 |  | 61 | 47.2 |  |  |  |  | 
3 | CS(=O)(=O)c1ccc(-c2cc(Cn3ccnc3)c3ccc4ccccc4c3n2)cc1 [Compound 9c, 4-((1H-Imidazol-1-yl)methyl)-2-(4-methylsulfonylphenyl)-benzo[h]-quinoline] | 527.9 | 0.068 | 35.9 | 216 to 217 | 75.8 | 68.9 | 50 |  | 48.4 | 41.3 | 10 |  |  |  | 
4 | CS(=O)(=O)c1ccc(-c2cc(Cn3ccnc3)c3ccc4c(c3n2)CCCC4)cc1 [Compound 9d, 4-((1H-Imidazol-1-yl)methyl)-7,8,9,10-tetrahydro-2-(4-methylsulfonylphenyl)-benzo[h]-quinoline] | 547.6 | 0.063 | 34.5 | 247 to 248 | 49.1 | 26.1 | 25 |  | 4 | 0.7 | < 5 |  |  |  | 
5 | CS(=O)(=O)c1ccc(-c2cc(Cn3ccnc3)c3ccccc3n2)cc1 [Compound 9e, 4-((1H-Imidazol-1-yl)methyl)-2-(4-methylsulfonylphenyl)-quinoline] | 179.9 | 0.072 | 13 | 189 to 190 | 47.4 | 47.5 | 50 | 25 | 67.2 | 58.2 |  |  |  |  | 
6 | COc1cccc2c1C(=O)c1c(O)c3c(c(O)c1C2=O)C[C@@](O)(C(=O)CO)C[C@@H]3O[C@H]1C[C@H](N)[C@H](O)[C@H](C)O1 [Doxorubicin, reference compound] |  |  |  |  |  |  | 0.1 |  |  |  | 0.25 | 53.2 | 27.1 | 50.2 | 31.7
